In paper PMC6934184, “Selective DNA-PKcs inhibition extends the therapeutic index of localized radiotherapy and chemotherapy” (The Journal of Clinical Investigation, 2019):

Biological target: T1, PRKCA (PKC alpha) (Homo sapiens, UniProt P17252)
T1 construct: purchased Thermo Fisher Scientific (Life Technologies) SelectScreen
Assay: SelectScreen Z'LYTE
Format: biochemical
Summary of the method: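 Percent values come from Thermo SelectScreen profiling of NU5455, combining activity and binding assays. CSF1R was run in Z'LYTE format at Km app ATP, and CAMK1 in Adapta format with ATP listed at 10.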

CN(C(=O)CN1CCOCC1)c1ccc2sc3c(-c4cccc5c(=O)cc(N6CC7CCC(C6)O7)oc45)cccc3c2c1 [NU5455]
inhibition at 1 µM: -2%
